These results are taken from patent publication US6423703B1, “Use of a porphyrin for producing a medicine reducing the number of eosinophils” (Sephra S.A.R.L., priority 1998, dated 2002).

“Also recorded” adds a separate entry of the source. Where two headings read alike, the source gives them in different places.

Data set [1] deals with neonatal jaundice. The conditions noted are these: Rodgers et al, 1996; i.p. 25 mg/kg; 21 days; new-born rats; cited from earlier work.
For data set [2] the following is noted: −20° C., protected from light and humidity; cited from earlier work.
For data set [3], the system named is cerebral ischemia. The conditions noted are these: i.p. 50 mg/kg, 24 hrs, adult rats, cited from earlier work.
For data set [4] the following is noted: Hintz et al, 1990; i.p. 37 mg/kg; 12 hrs; new-born rats; cited from earlier work.
Data set [5] deals with eosinophils. The experiment in a line: TUNEL method, DNA fragmentation in situ in eosinophils. The class given is cell-based, human. The conditions noted are these: IL-5 (lpM) and ZnPP-IX (10 μM); 48 hours. How it is done: The TUNEL method makes it possible to visualise the apoptotic nuclei containing the fragmented DNA. Its assumption rests on the enzymatic fixation of a fluorescent marker (Fluoresceine-12-dUTP) at the free extremities of the DNA (3′-OH DNA). This technique consists of the cells in each well being cytocentrifuged then fixed by formaldehyde solution at 4% (25 min at 4° C.). After washing, the preparations are made permeable by a solution of Triton X-100 0.2% (5 min at 20° C.). The cells are incubated (1 hr at 37° C.) in the presence of a solution containing fluoresceine-12-dUTP and the enzyme TdT (terminal deoxynucleotidal transferase). The reaction is […] in a stopping solution. After mounting under a coverglass, the preparation is visualized under the fluorescence microscope (Apoptosis Detection System Fluorescein. Promega, Madison, Wis., USA).
In the presence of IL-5 and the control solution, there is no marking of the nuclei.

In data set [6] the test system is peritoneal hypereosinophilia. The experiment in a line: Ovalbumin-induced peritoneal hypereosinophilia in mice. The class given is in vivo, Swiss mice. The conditions noted are these: 0.1 ml of 1 mM (3.1 mg/kg) intraperitoneal with ovalbumin challenge; 48 hrs; two mice. How it is done: Swiss mice (about 20 g) are immunised sub cutaneously twice (with a 6 day interval) with 100 μg of ovalbumin in 0.4 ml of a suspension at 4 mg/ml of Al(OH)3 in NaCl 0.9%. One week after the second injection, 0.2 ml of ovalbumin at 5 μg/ml of ovalbumin are administered by intraperitoneal injection. The control mice are injected with the vehicle only.
The mice are killed at different times (overdose of ether) and—after dissection —undergo a peritoneal wash with 6ml of NaCl 0.9% (heparinised). After slight massage, the liquid of the wash is collected and the cellular concentration is measured in a hemocytometer. Cytocentrifugation strips are made and coloured by the Wright colorant (kit RAL 555, Prolabo, France). The differential count of mononucleated (monocytes+macrophages+lymphocytes), eosinophil and neutrophil cells is carried out objectively×100 by immersion in oil. During the peritoneal washing of the control mice, the residual cells are essentially macrophages, whereas during the peritoneal washing of mice immunised by ovalbumin, an inflammatory infiltrate with the apparition of polynuclear eosinophils and neutrophils is observed.
The ZnPP-IX is Injected at the same time as the second injection of ovalbumin (OVA). […] The results are represented by FIGS. 4, 5 and 6. Each column represents the average for two mice at 48 hrs.

The conditions of data set [7]: literature in vivo studies; rats, mice, monkeys; i.v., i.p., sub-cutaneous; cited from earlier work.
Data set [8] deals with neonatal jaundice. To be noted: Qato et Maines, 1985; s.c. 25 mg/kg; 12 days; Rhesus monkeys and cynomolgus; cited from earlier work.
Data set [9] has as its system human eosinophils. The experiment in a line: Apoptosis and survival of purified human eosinophils in culture (cytology, blue trypan). The class given is cell-based. To be noted: for Apoptosis of eosinophils (percentage of apoptotic eosinophils): ZnPP-IX 10 μM, IL-5 10 pM where present, RPMI 1640, average of three experiments; for Number of apoptotic cells: in the presence of IL-5. How it is done:
A leukocyte-rich suspension is obtained after sedimentation of whole blood, anticoagulated in the presence of dextran T500 (4.5%). 35 ml of aliquots are added to 15 mi of Ficoll. After centrifugation (30 min, 1000×g) the mononucleated cells at the interface are eliminated. The pellet which contains neutrophils, eosinophils and the corpuscles is washed and subjected to an osmotic shock in order to eliminate the corpuscles. The magnetic cellular separation system (MACS; Miltenyi Biotec) is used to purify the eosinophils by negative selection [Hansel et al, 1991, J. Immunol. Meth. 145: 105-110]. Magnetic particles anti-CD16 (1 μl/1×10^6 cells) are added to the suspension of neutrophils and eosinophils at 4° C. and kept at this temperature for 40 minutes with several placement gain in solution. The suspension is then added at the summit of the separation column in the presence of a magnetic field, the tap open at the base. 30 ml of PBS/FCS is passed through the column and the effluent is recovered. The magnetically marked cells (neutrophils) remain in the column; the unmarked cells (eosinophils) are recovered in the effluent and washed. PBS=Phosphate buffered saline FCS=Foetal calf serum
The freshly purified eosinophils are again placed in suspension (1.5-3×10^5 cells per ml) in RPMI 1640 (Gibco BRL) supplemented with 0.1 mM non essential amino acids, 100 U/ml of penicillin, 10 μg of streptomycine, 10 mM of HEPES, 2 mM of glutamine and 10% FCS. The aliquots of 160 μl of cellular suspension are deposited in each of the wells of a 96 well tray (Costar) containing 20 μl of IL-5 as survival factor. Twenty μl of the substance to be studied in a precise concentration or 20 μl of the medium on its own as a control are deposited in the corresponding wells. The cellular viability and the percentage of apoptotic eosinophils are counted at 24 hrs and 48 hrs with the aid of the methods below.
Blue trypan makes it possible to evaluate cellular viability. The cellular suspension is added to an equal volume of blue trypan at 0.1% in PBS. The abso!ute number of cells excluding the blue trypan (=“living” cells) per unit volume is obtained by counting the cells in a hemocytometer (Mallassez).
Cytology: makes it possible to visualise the morphological modification of the eosinophils during apoptosis in vitro. The cellular suspension is cyto-centrifuged then the strips are coloured (kit RAL 555, Prolabo). The percentage of apoptotic cells is established by optical microscope according to their characteristic morphology (pyknotic nucleus with condensed chromatine or without a nucleus, reduction in the cells diameter, cytoplasmic condensation). The freshly isolated eosinophils from the blood circulation have a characteristic morphology in optical microscopy: a granular cytoplasm coloured red-orange by eosin and a very often bivobed nucleus. In the absence of survival factors such as IL-5, IL-3 or GM-CSF, the first morphological signs of apotosis of the eosinophils appear. The chromatin condenses and the nucleus of the eosinophil takes on a pyknotic appearance. This pyknotic appearance of the nucleus, standard in the course of apoptosis, is however rarely observed in the eosinophil, perhaps because of its brevity. Another morphological sign characteristic of apoptosis is the reduction of cellular volume which is very marked in the eosinophil (Beauvais et al, 1995, J, Leukoc. Biol. 57: 851-855). After 48 hours of incubation, the nuclear structures have disappeared in the majority of eosinophils which now appear in the form of anucleated vesicles.

Data set [10] relates to inflammation. To be noted: Nagai et al, 1992; 30 mg/kg; adult rats and mice; cited from earlier work.
Data set [11] has as its system steroidogenesis. To be noted: Trakshel et al, 1992; s.c. 31 mg/kg (2x −4j); 7 days; rats; cited from earlier work.
Data set [12] concerns intestinal, splenic and hepatic hemoxygenesis. To be noted: Vrema et al, 1988; p.o. 25 mg/kg; 6 hrs; new-born and adult rats; cited from earlier work.
Data set [13] deals with neonatal jaundice. The conditions noted are these: Rodgers et al, 1990; i.v. 25 mg/kg; 26 hrs; Rhesus monkeys (new-born); cited from earlier work.
Data set [14] relates to hyperbilirubinemia due to iatrogenic hemolysis. The conditions noted are these: Vreman et al, 1990; i.v. 25 mg/kg; 24 hrs; Rhesus monkeys (new-born); cited from earlier work.
Data set [15] deals with eosinophils. The conditions noted are these: in vitro; cited from earlier work.

Turning to `C=CC1=C(C)c2cc3[n-]c(cc4[n-]c(cc5nc(cc1n2)C(C)=C5C=C)c(C)c4CCC(=O)O)c(CCC(=O)O)c3C.[Zn+2]` [ZnPP-IX, Zinc-Protoporphyrin IX], the Pharmacological effects entry is “Reduces neonatal jaundice” in [1]; “Protects from cerebral ischemia” in data set [3] (Kadoya et al, 1995); “Protects from cerebral ischemia” in data set [3] (Zhao et al, 1996); “Reduces neonatal jaundice” in data set [8]; “Anti-inflammatory effect” in data set [10]; “Reduces neonatal jaundice” in data set [13]. In addition, the Storage stability entry in data set [2] is given as “at least 1 year”. Besides, the “Pharmacological effects (phototoxicity)” value in [4] is “No phototoxic effect”. Moreover, in data set [5], the “Marking of apoptotic nuclei by the TUNEL method” value is listed as “appear marked”. The “Inflammatory infiltrate in peritoneal wash” value in data set [6] is listed as “reduces the inflammatory infiltrate”. The “Number of eosinophils in the tissues” value in [6] is “large decrease”. Further, in [7], the Toxicity in animals result is “No toxicity has been reported; also recorded: No harmful effects were revealed”. The “Apoptosis of eosinophils (percentage of apoptotic eosinophils)” value in [9] (24 hrs) is 45 ± 15; in data set [9] (48 hrs), 99 ± 1; in data set [9] (time 0), 0. In data set [9] (average of two representative experiments), the “Activity on the survival and apoptosis of the eosinophils (FIG. 2)” value is given as “dosedependant activity”. Also, the “Induction of the apoptosis of eosinophils” value in data set [9] (in stronger concentrations of IL5 (10 pM)) is listed as “induces the apoptosis of eosinophils”. Moreover, in data set [9] (in the absence of IL-5), the “Effect on apoptosis of the eosinophils” value was “accelerates the apoptosis”. The “Number of apoptotic cells” value is reported as “very small” in [9] (24 hrs) and “practically all the cells are apoptotic” in data set [9] (48 hrs). Further, the “Pharmacological effects (steroidogenesis)” value in data set [11] is listed as “No effect on steroidogenesis”. Further, in data set [12], the “Pharmacological effects (inhibition of intestinal, splenic and hepatic hemoxygenesis)” value was “No inhibitory effect on intestinal,”. Also, the “Pharmacological effects (hyperbilirubinemia due to iatrogenic hemolysis)” value in [14] is “Reduces hyperbilirubinemia due to”.

Turning to `CCN(CC)CC(=O)Nc1c(C)cccc1C` [lidocaine], the Survival of eosinophils result in data set [15] is reported as “reduce the survival of eosinophils”.

Turning to “IL-5: Cytokine used as survival factor for the eosinophils in culture”, the “Apoptosis of eosinophils (percentage of apoptotic eosinophils)” value in [9] (24 hrs) was 2 ± 2; in [9] (48 hrs) it was 2 ± 1; in data set [9] (time 0) it was 0.
